The source of these data is US12077503B2, “Substituted cyclic amides and their use as herbicides” (FMC CORPORATION, priority 2015, dated 2024).

Holding throughout (type): in vivo
Experiment [1] concerns Kochia (Kochia scoparia). The experiment in a line: Test A preemergence. The following applies: Bassia scoparia, pre-emergence, 240 h, preemergence, read-out: Plant response rating, Kochia. The essentials:
(§1)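 Visual injury scores from 0, no effect, to 100, complete control, were assigned versus untreated controls roughly 10 d after treatment in the greenhouse. Test chemicals, formulated with surfactant in a non-phytotoxic solvent, were applied to planted seeds as a preemergence soil spray or postemergence to one- to two-leaf plants 2 to 10 cm tall, in loam–sand soil.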

Experiment [2] deals with giant foxtail (Setaria faberii). Briefly: Test A preemergence. Conditions: Setaria faberi, pre-emergence, 240 h, preemergence, read-out: Plant response rating, Foxtail, Giant. The essentials:
as §1

Experiment [3] has as its system pigweed (Amaranthus retroflexus). The experiment in a line: Test A preemergence. The following applies: Amaranthus retroflexus, pre-emergence, 240 h, preemergence, read-out: Plant response rating, Pigweed.
Experiment [4] has as its system ragweed (common ragweed, Ambrosia elatior). The experiment in a line: Test A preemergence. The following applies: Ambrosia artemisiifolia, pre-emergence, 240 h, preemergence, read-out: Plant response rating, Ragweed. In outline: as §1
The test system of experiment [5] is ryegrass, Italian (Italian ryegrass, Lolium multiflorum). The experiment in a line: Test A preemergence. Conditions: Lolium multiflorum, pre-emergence, 240 h, 125 g ai/ha, preemergence; visual rating after approx. 10 d; 0 to 100 scale where 0 is no effect and 100 is complete control; read-out: Plant response rating, Ryegrass, Italian. The essentials:
as §1

Experiment [6] deals with Galium (catchweed bedstraw, Galium aparine). The experiment in a line: Test A postemergence. The following applies: Galium, post-emergence, 240 h, 125 g ai/ha, postemergence; visual injury after approximately 10 d; 0 to 100 scale (0 no effect, 100 complete control); read-out: Plant response rating, Galium. In outline:
as §1

The test system of experiment [7] is Kochia (Kochia scoparia). Briefly: Test A postemergence. Conditions: Bassia scoparia, post-emergence, 240 h, 125 g ai/ha, postemergence; visual injury after approximately 10 d; 0 to 100 scale (0 no effect, 100 complete control); read-out: Plant response rating, Kochia. The essentials: as §1
Experiment [8] concerns barnyardgrass (Echinochloa crus-galli). Briefly: Test A postemergence. The following applies: Echinochloa crus-galli, post-emergence, 240 h, 125 g ai/ha, postemergence; visual injury after approximately 10 d; 0 to 100 scale (0 no effect, 100 complete control); read-out: Plant response rating, Barnyardgrass. In outline: as §1
Experiment [9] has as its system blackgrass (Alopecurus myosuroides). The experiment in a line: Test A postemergence. The following applies: Alopecurus myosuroides, post-emergence, 240 h, 125 g ai/ha, postemergence; visual injury after approximately 10 d; 0 to 100 scale (0 no effect, 100 complete control); read-out: Plant response rating, Blackgrass. The essentials:
as §1

The subject of another experiment is corn (Zea mays). The experiment in a line: Test A postemergence. Conditions: Zea mays, post-emergence, 240 h, 125 g ai/ha, postemergence; visual injury after approximately 10 d; 0 to 100 scale (0 no effect, 100 complete control). The essentials: as §1
Experiment [10] deals with giant foxtail (Setaria faberii). Briefly: Test A postemergence. Conditions: Setaria faberi, post-emergence, 240 h, 125 g ai/ha, postemergence; visual injury after approximately 10 d; 0 to 100 scale (0 no effect, 100 complete control); read-out: Plant response rating, Foxtail, Giant. In outline: as §1
The subject of experiment [11] is pigweed (Amaranthus retroflexus). Briefly: Test A postemergence. Conditions: Amaranthus retroflexus, post-emergence, 240 h, 125 g ai/ha, postemergence; visual injury after approximately 10 d; 0 to 100 scale (0 no effect, 100 complete control); read-out: Plant response rating, Pigweed. In outline:
as §1

Experiment [12] concerns ragweed (common ragweed, Ambrosia elatior). The experiment in a line: Test A postemergence. The following applies: Ambrosia artemisiifolia, post-emergence, 240 h, 125 g ai/ha, postemergence; visual injury after approximately 10 d; 0 to 100 scale (0 no effect, 100 complete control); read-out: Plant response rating, Ragweed. In outline: as §1
Experiment [13] deals with ryegrass, Italian (Italian ryegrass, Lolium multiflorum). Briefly: Test A postemergence. Conditions: Lolium multiflorum, post-emergence, 240 h, 125 g ai/ha, postemergence; visual injury after approximately 10 d; 0 to 100 scale (0 no effect, 100 complete control); read-out: Plant response rating, Ryegrass, Italian. The essentials:
as §1

The test system of experiment [14] is wheat (Triticum aestivum). Briefly: Test A postemergence. Conditions: Triticum aestivum, post-emergence, 240 h, 125 g ai/ha, postemergence; visual injury after approximately 10 d; 0 to 100 scale (0 no effect, 100 complete control); read-out: Plant response rating, Wheat. In outline:
as §1

Setting [15] is: 125 g ai/ha, visual rating after approx. 10 d, 0 to 100 scale where 0 is no effect and 100 is complete control.
[16] abbreviates: 500 g ai/ha, 0 to 100 scale, 0 = no effect, 100 = complete control.

Turning to `COc1cc([C@H]2CN(C)C(=O)[C@@H]2C(=O)Nc2ccccc2F)ccc1C(F)(F)F` [Compound 768], the pest or weed control at 125 g/ha with Kochia (Kochia scoparia) [1] (setting [15]) was found to be 60%; in experiment [2] (setting [15]), 90%; in experiment [3] (setting [15]) it was 0%; in experiment [4] (setting [15]), 0%; in [5], 0%; in experiment [6] it was 30%. Besides, the pest or weed control at 125 g/ha was 0% in the experiment on Kochia (Kochia scoparia) [7]; 70% in experiment [8]; 0% in [9]; 80% in experiment [10]; 0% in experiment [11]; 0% in [12]. In [13], the pest or weed control at 125 g/ha was 30%. The pest or weed control at 500 g/ha was found to be 70% in the experiment on Kochia (Kochia scoparia) [1] (setting [16]), 90% in experiment [2] (setting [16]), 20% in experiment [3] (setting [16]) and 0% in [4] (setting [16]). In the experiment on corn (Zea mays), this compound gave a Corn plant response rating (crop injury, 0 = no effect, 100 = complete kill) at 125 g/ha of 30%. Also, the plant injury at 125 g/ha in experiment [14] was 0%.
